Experimental data from patent US8883763B2 (Universite Joseph Fourier, priority 2010, dated 2014).

Assays:
[1] = target: T1, PP1α (PP1CA) (Oryctolagus cuniculus, UniProt P62139); experiment: Protein phosphatase test (PP1 activity, DiFMUP fluorescent substrate); format: biochemical; conditions: PP1CA at 80 mU, fluorescent substrate (50 μM), molecules from 50 μM to 50 nM; read-out: PP1 Inhibition IC50
T1 construct: purchased New England Biolabs P0754
Description: FIG. 13 presents the graph showing the inhibition of the PP1Cα activity by compound 6 in vitro. PP1Cα (New England Biolabs, 30 mU/well) was incubated in the presence of compound 6 at different concentrations and a fluorescent substrate, diFMUP.
Determination of the 1050 was carried out with PP1CA at 80 mU in the presence of a fluorescent substrate
(50 μM) and different concentrations of molecules from 50 μM to 50 nM.
For the activity tests, PP1α (New England Biolabs # P0754) was used at a final concentration of 30 mU or 80 mU for the screening of all the analogues. 6,8-difluoro-4-methylumbelliferyl phosphate (DiFMUP, Invitrogen # D6567) was used as fluorescent substrate at a concentration of […]. All the tests were carried out in a final volume of 100 μl, at 37° C. in 96-microwell plates (Greiner #655096).
Compound 6, combretastatin A4 (CA-4) as well as all the analogues were diluted in 50 μl of PP1 buffer (100 mM Tris-HCl, pH 7.5, 4 mM DTT, 0.2 mM EDTA, 0.5 mM MnCl2) from 50 μM to 50 nM. Corresponding quantities of DMSO were added to control wells. PP1α (30 or 80 mU in 30 μl of PP1 buffer) was added to each well. After incubating for 15 minutes at AT, the substrate was added (in 20 μl of PP1 buffer). After incubating for 20 minutes at 37° C., the fluorescence was measured in a plate fluorometer at 355-460 nm in order to assay the phosphatase activity. The test was carried out three times in duplicate for each condition.

[2] = tested on: bovine brain tubulin; experiment: In vitro tubulin polymerization test (turbidimetry at 350 nm); format: biochemical; conditions: molecules at 50 μM, calculated at t=3000 s, DMSO control = 100%
Description: Tubulin was purified from bovine brain using the polymerization-depolymerization process described by (Castoldi M and Popov A V. Protein Expr Purif. 2003, 32(1): pp 83-8).
The in vitro tubulin polymerization tests (at 50 μM) were carried out in the presence of GTP 1 mM in BRB80 buffer (80 mM K-PIPES pH 6.8, 1 mM MgCl2, 1 mM EGTA) at 37° C. The tests were carried out in 96-microwell plates (half-wells) (Costar plates, Corning #3695), in triplicate with a final volume of 70 μl. Tubulin assembly was carried out in the presence of compound 6 or its analogues (all used at a concentration of 50 μM) and was monitored by turbidimetry measurement at 350 nm using a spectrophotometer (Spectramax More, Molecular Devices).
Measurement of the effect of a molecule on polymerization was calculated at t=3000 s taking the value of the control at the same time as being equal to 100%.

[3] = tested on: HeLa cells; experiment: Indirect immunofluorescence: effect on HeLa cells (mitotic arrest, microtubule depolymerization); format: cell-based, human; parameters: key to Effect on Hela at 25 μM / Effect on Hela at 100 μM / Effect on Hela at 50 and 100 μM / Effect on Hela at 50 μM: —: −: no activity on the cells at 25 μM (if there is an effect at high concentrations, this is specified in the table).; *: weak activity (MA and/or slight depolymerization of the MTs and/or slight inhibition of proliferation),; **: average activity (MA and/or moderate depolymerization of the MTs and/or moderate inhibition of proliferation),; ***: strong activity (MA and/or pronounced depolymerization of the MTs and/or pronounced inhibition of proliferation),; ****: very strong activity (MA and/or very pronounced depolymerization of the MTs and/or strong inhibition of proliferation); conditions: 25 μM, 24 hours; mitotic index and/or depolymerization of the MTs
Description: The cells were cultured on slides in 24-well plates and incubated for 24 hours with molecule 6 at different concentrations from 1 to 10 μM.
Corresponding quantities of DMSO were added to the culture medium in the control wells.
The cells were fixed in a solution of PBS with 4% paraformaldehyde (PFA) and 0.1% glutaraldehyde (GA), for 15 minutes and centrifuged at 300 g for the last 10 minutes of the fixing. The slides were rinsed in PBS and the free aldehyde groups were reduced by two successive 5-minute incubations in PBS containing 1 mg/ml of NaBH4.
After one washing with PBS then another with PBST (PBS with 0.5% triton-X-100), the cells are incubated for 30 minutes at ambient temperature with anti α-tubulin monoclonal antibody solution (DM1A clone, Sigma # T6199) diluted to 1:200 in PBST. After 3 10-minute washings with PBST, the cells are incubated for 30 minutes at ambient temperature in a solution of goat anti-mouse polyclonal antibodies coupled with Alexa 488 (1:1000, Molecular Probes # A-11029) and phalloidin coupled with Texas red to label the actin (1:2000, Molecular Probes # T7471), in PBST also containing Hoechst 33258 (1 μg/ml) for labelling the DNA. After 3 10-minute washings in PBST, the slides are mounted on plates in Fluorsave™ mounting medium (Calbiochem #345789) and are observed and analyzed using an Axiovert 200M inverted fluorescence microscope (Zeiss®). The images are produced with a Plan-Apochromat 63× oil objective (Zeiss®) by means of a Coolsnap HQ camera (Roper Scientifics®) and with Metamorph acquisition software (Universal Imaging™ Corporation).
In order to evaluate the effect of the analogues of compound 6 on PHFs and HeLa cells, the immunofluorescence technique described above was used and adapted to a 96-well dish format. The cells were seeded in glass-bottomed 96-well dishes and incubated for 24 hours in the presence of different concentrations of molecules from 100 μM to 50 nM. And in the same way as described above, the cells were fixed and immunolabelled. Analysis of the phenotypes as well as counting the mitotic cells were carried out with the same microscope but using a ×40 objective (Olympus). The molecules were compared with each other with respect to the mitotic arrest induced on PHFs and HeLa cells at 25 and 0.3 μM.
The mitotic index and/or the depolymerization of the MTs were evaluated at 25 μM.

[4] = tested on: HMEC cells; experiment: Proliferation of HMEC cells (GI50); format: cell-based; conditions: Homo sapiens, 120 h, 50 μM to 1 nM for 5 days
Description: The HMECs were seeded at 10% confluence and incubated with the molecules at different concentrations (from 50 μM to 1 nM) for 5 days. The GI50 (50% Growth Inhibition) defines the concentration inducing a 50% reduction in proliferation with respect to the control.

T1 sequence (P62139 whole entry): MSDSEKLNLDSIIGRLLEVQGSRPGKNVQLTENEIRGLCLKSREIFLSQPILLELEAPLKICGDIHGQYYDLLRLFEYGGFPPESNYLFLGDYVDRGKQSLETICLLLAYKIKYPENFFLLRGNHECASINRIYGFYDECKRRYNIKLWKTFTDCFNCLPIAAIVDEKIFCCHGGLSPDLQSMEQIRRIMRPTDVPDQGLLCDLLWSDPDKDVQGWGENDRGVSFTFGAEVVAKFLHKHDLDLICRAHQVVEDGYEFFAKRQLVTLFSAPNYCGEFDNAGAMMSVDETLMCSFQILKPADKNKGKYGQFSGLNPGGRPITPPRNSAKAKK

SMILES | IC50 [1] [µM] | Tubulin polymerization inhibition [2] | Effect on Hela at 25 μM [3] | GI50 [4] [µM] | melting point [°C]
C#CCOc1nc(-c2ccc(OC)cc2)c([N+](=O)[O-])c2ccc(OC)cc12 [Compound 29, 7-Methoxy-3-(4-methoxyphenyl)-4-nitro-1-(prop-2ynyloxy)isoquinoline] | ≥ 50 | + ((+) signifies that the molecule induces tubulin assembly inhibition in vitro comprised between 6 and 25% of the DMSO control.) | — | > 50 | 177 to 179
COc1ccc(-c2nc(Cl)c3cc(OC)ccc3c2[N+](=O)[O-])cc1 [Compound 17, 1-Chloro-7-methoxy-3-(4-methoxyphenyl)-4-nitroisoquinoline] | > 50 | ++ ((++) signifies that the molecule induces tubulin assembly inhibition in vitro comprised between 26 and 50% of the DMSO control.) | — | 25 to 50 | 196 to 198
COc1ccc2cc(-c3ccc(Br)cc3)[nH]c(=O)c2c1 [Compound 32, 3-(4-Bromophenyl)-7-methoxyisoquinolin-1(2H)-one] | 10 to 24 | — ((−) signifies that the molecule induces little or no tubulin assembly inhibition in vitro: 0+ or − −5% of the DMSO control.) | **** | 0.1 to 1 | > 250
COc1ccc(-c2[nH]c(=O)c3cc(OC)ccc3c2-n2cccc2)cc1 [Compound 39, 4-(Pyrrol-1-yl)-7-methoxy-3-(4-methoxyphenyl)isoquinoline-1(2H)-one] | 10 to 24 | + ((+) signifies that the molecule induces tubulin assembly inhibition in vitro comprised between 6 and 25% of the DMSO control.) | — | 0.1 to 1 | 238
COc1ccc2c([N+](=O)[O-])c(-c3ccc(Br)cc3)[nH]c(=O)c2c1 [Compound 34, 3-(4-Bromophenyl)-7-methoxy-4-nitroisoquinolin-1(2H)-one] | 25 to 50 | +++ ((+++) signifies that the molecule induces tubulin assembly inhibition in vitro of more than 50% with respect to the DMSO control.) | *** | ≤ 0.1 | 222 to 224
COc1ccc(-c2nc(Cl)c3cc(OC)ccc3c2Br)cc1 [Compound 26, 4-Bromo-1-chloro-7-methoxy-3-(4-methoxyphenyl)isoquinoline] | > 50 | — ((−) signifies that the molecule induces little or no tubulin assembly inhibition in vitro: 0+ or − −5% of the DMSO control.) | — | > 50 | 164 to 166
COc1ccc(-c2[nH]c(=O)c3cc(OC)ccc3c2Br)cc1 [Compound 15, 4-Bromo-7-methoxy-3-(4-methoxyphenyl)isoquinoline-1(2H)-one] | > 50 | ++ ((++) signifies that the molecule induces tubulin assembly inhibition in vitro comprised between 26 and 50% of the DMSO control.) | *** | 0.1 to 1 | 240 to 242
COc1ccc2cc(-c3ccc(OCc4ccccc4)cc3)[nH]c(=O)c2c1 [Compound 44, 3-(4-(Benzyloxy)phenyl)-7-methoxyisoquinolin-1(2H)-one] | 10 to 24 | — ((−) signifies that the molecule induces little or no tubulin assembly inhibition in vitro: 0+ or − −5% of the DMSO control.) | — | 25 to 50 | > 260
C#Cc1c(-c2ccc(OC)cc2)nc(OC)c2cc(OC)ccc12 [Compound 38, 4-Ethynyl-1,7-dimethoxy-3-(4-methoxyphenyl)isoquinoline] | > 50 | + ((+) signifies that the molecule induces tubulin assembly inhibition in vitro comprised between 6 and 25% of the DMSO control.) | — | > 50 | 209 to 210
COc1ccc(-c2[nH]c(=O)c3cc(OC)ccc3c2C=O)cc1 [Compound 25, 7-Methoxy-3-(4-methoxyphenyl)isoquinoline-1(2H)-one-4-carbaldehyde] | ≥ 50 | +++ ((+++) signifies that the molecule induces tubulin assembly inhibition in vitro of more than 50% with respect to the DMSO control.) | **** | 0.1 to 1 | 232
COc1ccc(-c2nc(OC)c3cc(OC)ccc3c2Br)cc1 [Compound 27, 4-Bromo-1,7-Dimethoxy-3-(4-methoxyphenyl)isoquinoline] | > 50 | + ((+) signifies that the molecule induces tubulin assembly inhibition in vitro comprised between 6 and 25% of the DMSO control.) | — | 25 to 50 | 138 to 140
COc1ccc(-c2[nH]c(=O)c3cc(OC)ccc3c2I)cc1 [Compound 16, 4-Iodo-7-methoxy-3-(4-methoxyphenyl)isoquinoline-1(2H)-one] | > 50 | +++ ((+++) signifies that the molecule induces tubulin assembly inhibition in vitro of more than 50% with respect to the DMSO control.) | *** | 0.1 to 1 | 216 to 218
C#Cc1ccc(-c2[nH]c(=O)c3cc(OC)ccc3c2[N+](=O)[O-])cc1 [Compound 36, 3-(4-Ethynylphenyl)-7-methoxy-4-nitroisoquinolin-1(2H)-one] | 10 to 24 | +++ ((+++) signifies that the molecule induces tubulin assembly inhibition in vitro of more than 50% with respect to the DMSO control.) | **** | ≤ 0.1 | 246 to 248
